Test results from PMC12033364, “Emergence of transferable daptomycin resistance in Gram-positive bacteria” (npj Antimicrobials and Resistance, 2025).

Legend:
[1] = test system: drcA and drcB (TS92_00079, TS92_00080) in M. sciuri TS92; assay: Transcription profiling (RNA-Seq) upon DAP exposure; format: cell-based, Mammaliicoccus sciuri; conditions: M. sciuri TS92 exposed to 128 µg/mL DAP for 30 min, three biological replicates, DESeq2
Experimental: An overnight culture of M. sciuri TS92 was diluted in fresh MH to an optical density at 600 nm (OD600) of 0.05 and grown to OD600 0.5. The culture was split into 10 mL each aliquots and incubated in the absence and presence of 128 µg/mL DAP for 30 min. Subsequently, total RNA extraction was performed as described previously.
RNA was isolated from three biological replicates. RNA quality was checked using a 2100 Bioanalyzer with the RNA 6000 Nano Kit (Agilent Technologies, Santa Clara, USA). cDNA libraries suitable for sequencing were prepared from 1000 ng of total RNA after DNase I treatment (Thermo Fisher, Darmstadt, Germany). […] The number of PCR cycles was determined at 14 by qPCR and the elongation time was set to 15 s. Libraries were quantified by Qubit^TM dsDNA HS Assay Kit and Qubit^TM 3.0 Fluorometer (ThermoFisher), and quality was checked using 2100 Bioanalyzer with the High Sensitivity DNA Kit (Agilent Technologies) before pooling. Sequencing of pooled libraries, spiked with 5% PhiX control library, was performed at ~11–15 million reads per sample in single-end mode with 75 nucleotide read length on the NextSeq 500 platform (Illumina, San Diego, CA, USA). […] Afterwards, the pipeline READemption v0.4.5[59] was applied to align all reads longer than 11 nt (-l 12) to our de novo assembled M. sciuri TS92 genome using segemehl v0.2.0[60] with an accuracy cut-off of 95% (-a 95). […]

S. aureus RN4220 = assay: DAP MIC, micro-broth dilution, plasmid-carrying strains; format: cell-based, Staphylococcus aureus; conditions: MH + 50 µg/mL CaCl2, 18 h 37 °C, three biological replicates
Experimental: (§1) Bacteria were grown in Muller-Hinton broth (MH) (Carl Roth GmbH + Co. KG, Karlsruhe, Germany) and over-night cultures supplemented with antibiotics when required. […] For transcription profiling experiments, bacteria were exposed to 128 µg/mL DAP for 30 min. All strains, except bacilli (30 °C), were incubated at 37 °C.
(§2) Recombinant plasmids (Table S1) were generated by in vitro E. coli cloning method, employing shuttle vector pCG248 as backbone and E. coli DC10B as host. After recovery from E. coli, recombinant plasmids were transformed into S. aureus or B. subtilis via electroporation.
(§3) The cultures were adjusted to 5 × 10^5 CFU/mL and transferred to a 96-well flat bottom microtiter plate (Greiner Bio-One GmbH, Frickenhausen, Germany). 100 ng/mL anhydrotetracycline (ATc) (Carl Roth GmbH + Co. KG, Karlsruhe, Germany) was added if required; ATc-containing plates were stored in the dark. Plates were incubated for 18 h at 37 °C (24 h at 30 °C for bacilli) under static conditions. Afterwards, the OD595 was measured to determine the MIC according to EUCAST guidelines.

[2] = test system: Enterococcus faecalis CVM N59689F; conditions: E. faecalis CVM N59689F, drc-carrying isolate from market swine; cited from earlier work
Excerpt: Table 1 Detection of the drc locus (drcRS/drcAB) in staphylococci and enterococci | column: DAP MIC (µg/mL) || Another bottleneck in clinical AMR development is that AMR genes from environmental microorganisms must gain access to pathogenic species. This requires donors and recipients to come into close physical contact, which is often challenging as pathogenic and environmental species rarely share the same ecological niche. In this respect, M. sciuri may play a crucial role in drc acquisition and spread. Due to its dual lifestyle as a soil bacterium and animal commensal, M. sciuri comes into contact with both the soil resistome and commensal bacteria associated with warm-blooded hosts, making M. sciu ...

B. subtilis 168 = assay: DAP MIC, micro-broth dilution, plasmid-carrying strains; format: cell-based, Bacillus subtilis
Experimental: as §1, §2, §3

S. aureus USA300 LAC* = assay: DAP MIC, micro-broth dilution, plasmid-carrying MRSA strains; format: cell-based, Staphylococcus aureus; conditions: MH + 50 µg/mL CaCl2, 18 h 37 °C, three biological replicates
Experimental: as §1, §2, §3

SMILES: CCCCCCCCCC(=O)N[C@@H](Cc1c[nH]c2ccccc12)C(=O)N[C@H](CC(N)=O)C(=O)N[C@@H](CC(=O)O)C(=O)N[C@@H]1C(=O)NCC(=O)N[C@@H](CCCN)C(=O)N[C@@H](CC(=O)O)C(=O)N[C@H](C)C(=O)N[C@@H](CC(=O)O)C(=O)NCC(=O)N[C@H](CO)C(=O)N[C@@H]([C@H](C)CC(=O)O)C(=O)N[C@@H](CC(=O)c2ccccc2N)C(=O)O[C@@H]1C [DAP, Daptomycin]
- up-regulation of drcA and drcB transcription upon DAP exposure versus untreated control [1]: 128 fold change
- DAP MIC (S. aureus RN4220; S. aureus RN4220_Pxyl/tet-drcAB + ATc (100 ng/mL, induced)): 64 µg/mL
- DAP MIC (S. aureus RN4220; S. aureus RN4220_drcRS/drcAB (entire drc locus, native drcRS control, plasmid)): 64 µg/mL
- DAP MIC (S. aureus RN4220; S. aureus RN4220_empty vector control): 1 µg/mL
- DAP MIC [2]: >16 µg/mL
- DAP MIC (B. subtilis 168; B. subtilis 168_Pxyl/tet-drcAB + ATc (induced), MH + 50 µg/mL CaCl2, 24 h 30 °C, three biological replicates): 16 µg/mL
- DAP MIC (B. subtilis 168; B. subtilis 168_drcRS/drcAB (entire drc locus on plasmid), MH + 50 µg/mL CaCl2, 24 h 30 °C, three biological replicates): > 256 µg/mL
- DAP MIC (B. subtilis 168; B. subtilis 168 as worded in the text, before induction of drcAB expression): 2 µg/mL
- DAP MIC (S. aureus USA300 LAC*; S. aureus USA300 LAC*_Pxyl/tet-drcAB + ATc (induced)): 32 µg/mL
- DAP MIC (S. aureus USA300 LAC*; S. aureus USA300 LAC*_drcRS/drcAB (entire drc locus on plasmid)): 128 µg/mL
- DAP MIC (S. aureus USA300 LAC*; S. aureus USA300 LAC*_empty vector control): 1 µg/mL
